A short description of data set [1]: in vitro. The settings on record: human, CC50.
Data set [2] relates to Zika virus MR766. Nature of the data set: Zika virus antiviral screen in HuH-7. The settings on record: for EC50: Zika virus, read-out: EC50. The class given is cell-based.
Data set [3] concerns Dengue 2. The data set can be described thus: Dengue virus antiviral screen in HUH7. In kind it is cell-based, dengue virus type 2. The settings on record: Dengue virus, Huh-7, New Guinea C, read-out: EC50.
Data set [4] can be described thus: Phosphatidylcholine binding (thin-layer chromatographic run). The settings on record: words.
In data set [5] the test system is Herpes simplex virus type 1 E-377. The data set can be described thus: Herpes simplex virus type 1 antiviral screen in primary HFF-1 (CellTiter-Glo). In kind it is cell-based. The settings on record: Human alphaherpesvirus 1; E-377, Primary HFF-1, CellTiter-Glo.
A short description of data set [6]: Cytotoxicity on primary human foreskin fibroblasts. The settings on record: human.
The subject of data set [7] is Vaccinia virus Copenhagen. Nature of the data set: microbe, parasite or virus in culture. The settings on record: Orthopoxvirus vaccinia, HFF-1. In kind it is cell-based.
Data set [8] in a line: Cytotoxicity on RD host cells. The class given is cell-based. The settings on record: human, RD cells, Enterovirus D68 screen, read-out: CC50.
Data set [9] deals with Enterovirus D68 US/KY/14-18953. Nature of the data set: Enterovirus D68 antiviral screen in RD. The class given is cell-based. The settings on record: Enterovirus D, US/KY/14-18953, RD, read-out: EC50.
The subject of data set [10] is Hepatitis B virus (HBV) ayw. Nature of the data set: Hepatitis B virus replication in HepAD38 (32P dot blot). The settings on record: Hepatitis B virus. The class given is cell-based.
For data set [11], the system named is Norwalk virus (replicon) GT1. The data set can be described thus: Norwalk virus replicon (GT1) in HG23, RNA hybridization. In kind it is cell-based, Norwalk virus (human norovirus). The settings on record: Norovirus/1968/US, HG23, Replicon. (Replicon systems follow genome replication, usually without infectious particles.)
Data set [12] concerns cellular ribosomal RNA (rRNA) synthesis. The data set can be described thus: Cellular ribosomal RNA synthesis in HCV replicon cells (TaqMan RT-qPCR). In kind it is cell-based. The settings on record: Fixed: 10 μM, Clone B genotype 1a, HuH-7, Replicon.
The subject of data set [13] is Hepatitis C virus (replicon) clone B (genotype 1a). The data set can be described thus: HCV genotype 1a HuH-7 clone B subgenomic replicon RNA replication. The class given is cell-based, human hepatitis C virus. The settings on record: Fixed: 10 μM, Clone B genotype 1a, HuH-7, Replicon.
Data set [14] can be described thus: in vitro. The settings on record: African green monkey.
For data set [15], the system named is Tacaribe TRVL11573. Nature of the data set: microbe, parasite or virus in culture. In kind it is cell-based, Tacaribe virus.
Data set [16] concerns swine-origin pandemic influenza A (H1N1) virus. The data set can be described thus: microbe, parasite or virus in culture. The class given is cell-based.
The subject of data set [17] is Respiratory syncytial type A A2 (VR-1540). The data set can be described thus: Respiratory syncytial virus type A antiviral screen in MA-104. In kind it is cell-based. The settings on record: human respiratory syncytial virus, MA104, A2 (VR-1540), read-out: EC50.
Data set [18] deals with Rift Valley fever MP-12. The data set can be described thus: microbe, parasite or virus in culture. The class given is cell-based, Rift Valley fever virus.
A short description of data set [19]: in vitro. The settings on record: African green monkey. The source holds these as a separate data set.
A short description of data set [20]: in vitro. The settings on record: human.
Data set [21] is described as follows: Cytotoxicity on CCRF-CEM. The settings on record: human, CCRF-CEM cells (T-lymphoblastic acute T cell leukemia), Cytotoxicity CC50, CCRF-CEM.
In data set [22] the test system is HIV-1 strain LAI. The data set can be described thus: HIV-1 replication reverse transcriptase (RT) assay in PBMC. The settings on record: in PBMC. The class given is cell-based, human immunodeficiency virus type 1.

Structures are written as SMILES. ≈ marks a conversion by molar mass, not a printed value. Where a name gives a salt, the structure may show the parent alone. Read-outs that look alike come from different tables or passages of the source.

Usually EC90 stands for the point of the concentration-response curve where the effect stands at 90%. One may read the EC50 as the concentration needed to bring the measured effect to its halfway point. Compound `O=c1cnn([C@@H]2O[C@H](CO)[C@@H](O)[C@H]2O)c(=O)[nH]1` [6-azauridine, reference compound] had a CC50 in data set [1] of over 408 µM. Also, the 90% effect concentration (EC90) in data set [2] (Huh-7, Visual (Virus yield reduction), Zika virus MR766, HUH7, Example 9, unit from Conc. Range, read-out: EC90) was 0.89 µg/mL (≈ 3.63 µM). Moreover, the half-maximal effective concentration (EC50) is 11 µg/mL in [2] (Huh-7, MR766, HuH-7, Neutral red); 3.2 µg/mL in data set [2] (Huh-7, MR766, HuH-7, Visual); 4.1 µg/mL in data set [2] (Huh-7, Neutral Red (Cytopathic effect/Toxicity), Zika virus MR766, HUH7, Example 9); 13.1 µM in data set [2] (Huh-7, Zika virus MR766, HuH-7, Table 10); 4.6 µg/mL (≈ 18.8 µM) in data set [3] (HuH-7, Neutral red); 2.8 µg/mL (≈ 11.4 µM) in data set [3] (HuH-7, Visual).
Turning to `CC#C[C@]1(O)CC[C@H]2[C@@H]3CCC4=C/C(=N/NC(N)=S)CCC4=C3[C@@H](c3ccc4c(c3)OCO4)C[C@@]21C` [(E)-ORG34517 thiosemicarbazone], in data set [4], the “binding to PC” value was “Weak (stereospecific!) binding to PC”.
In turn, `Nc1nc2c(ncn2COCCO)c(=O)[nH]1` [Aciclovir] came in with an EC50 in data set [5] of 3.85 µM. Also, the CC50 in data set [6] (primary human foreskin fibroblasts (HFF-1), CC50, Herpes simplex virus type 1 screen, Primary HFF-1, CellTiter-Glo) is over 150 µM.
In turn, `Nc1ccn(C[C@@H](CO)OCP(=O)(O)O)c(=O)n1` [Cidofovir] yielded a CC50 in data set [6] (primary HFF-1 human foreskin fibroblasts, CC50) of over 150 µM. In addition, the half-maximal effective concentration (EC50) in data set [7] was determined as 7.34 µM.
As for `CC(C)S(=O)(=O)n1c(N)nc2ccc(/C(=N/O)c3ccccc3)cc21` [Enviroxime], the CC50 in [8] (Neutral red) amounted to 25 µg/mL (≈ 69.7 µM); in data set [8] (Visual) it was 32 µg/mL (≈ 89.3 µM). Also, the EC50 in [9] (Neutral red) is 0.1 µg/mL (≈ 0.279 µM); in data set [9] (Visual) it was under 0.1 µg/mL.
Take `Nc1ccn([C@@H]2CS[C@H](CO)O2)c(=O)n1` [Lamivudine]: a half-maximal response in data set [10] (EC50) required 0.03 µM.
Consider `C[C@@]1(O)[C@H](O)[C@@H](CO)O[C@H]1n1ccc(N)nc1=O` [RS-446], for which the 50% effective concentration (EC50) in [11] was 6.9 µM. The “% Inhib rRNA(tox)” value in [12] was 31.09%. In addition, the “% Inhib replication” value in data set [13] is on record as 98.08%.
With `NC(=O)c1ncn([C@@H]2O[C@H](CO)[C@@H](O)[C@H]2O)n1` [Ribavirin], the CC50 in data set [14] and in data set [19] (CC50) was over 1000 µg/mL throughout. Moreover, the EC50 turned out to be 7 µg/mL (≈ 28.7 µM) in data set [15]; 7.9 µg/mL (≈ 32.3 µM) in data set [15] (Mammarenavirus tacaribeense, Vero); 13 µg/mL (≈ 53.2 µM) in data set [16]; 14 µg/mL (≈ 57.3 µM) in data set [16] (Influenza A virus, H1N1, MDCK); 6.8 µg/mL (≈ 27.8 µM) in [17] (MA-104, Neutral red); 6.7 µg/mL (≈ 27.4 µM) in data set [17] (MA-104, Visual). The EC50 in data set [18] turned out to be 8.3 µg/mL (≈ 34 µM); in [18] (Rift Valley fever virus, Vero 76), 9.7 µg/mL (≈ 39.7 µM).
`Nc1ccn([C@@H]2O[C@H](CO)[C@@H](O)[C@H]2O)c(=O)[n+]1[C-2][n+]1c(N)ccn([C@@H]2O[C@H](CO)[C@@H](O)[C@H]2O)c1=O` [TCY-1, Bis(cytidin-3-ium-3-yl)methanediide monohydrochloride×1.25H2O]: the CC50 in data set [20], in data set [21] and in data set [19] (Cytotoxicity CC50) was over 100 µM each time. For the same compound, the concentration giving a half-maximal response (EC50) in data set [22] (Human immunodeficiency virus 1, PBMC, read-out: Anti-HIV-1LAI activity EC50) was determined as 0.29 µM. The EC90 in data set [22] (Human immunodeficiency virus 1, read-out: Anti-HIV-1LAI activity EC90) stood at 1 µM.

The values are drawn from US9598459B2, “Pharmaceutical compositions and methods” (priority 2015, dated 2017).
